Values of other authors as cited in patent US20260191683A1, “SUSTAINED RELEASE OCULAR IMPLANTS” (University of Tennessee Research Foundation, priority 2023, published 2026).

Details: high permeability

CC(C)C[C@H](CN)CC(=O)O [PRG, pregabalin]
BCS class: BCS class I drug
